The text below walks through data of patent US20230102520A1, “INHIBITORS OF LOW MOLECULAR WEIGHT PROTEIN TYROSINE PHOSPHATASE (LMPTP) AND USES THEREOF” (Sanford Burnham Prebys Medical Discovery Institute, priority 2019, published 2023).

For the experiment, the target named is T1, human LMPTP-A (Homo sapiens, UniProt P24666).
T1 sequence (P24666 1-158): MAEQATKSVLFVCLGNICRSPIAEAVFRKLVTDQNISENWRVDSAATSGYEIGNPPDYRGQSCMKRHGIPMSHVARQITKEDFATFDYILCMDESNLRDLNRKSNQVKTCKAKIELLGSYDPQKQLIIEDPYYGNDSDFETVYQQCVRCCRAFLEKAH
The experiment is described as follows: Enzyme Assay of Inhibition of LMPTP-A. The format is biochemical. Conditions: phosphatase assay, OMFP or pNPP substrate, 50 mM Bis-Tris pH 6.0, 37° C. The method, then: Example B-1: Enzyme Assay of Inhibition of LMPTP-A
Phosphatase assays were performed in buffer containing 50 mM Bis-Tris, pH 6.0, 1 mM DTT and 0.01% Triton X-100 at 37° C. For assays conducted with 3-O-methylfluorescein phosphate (OMFP) as substrate, fluorescence was monitored continuously at λex=485 and λem=525 nm. For assays conducted with para-nitrophenylphosphate (pNPP) as substrate, the reaction was stopped by addition of 2× reaction volume of 1 M NaOH, and absorbance was measured at 405 nm. IC50 values of compounds disclosed herein were determined from plots of inhibitor concentration versus percentage of enzyme activity. For inhibitor selectivity assays, each PTP was incubated with either 0.4 mM OMFP or 5 mM pNPP in the presence of 40 μM compound or DMSO. […] For the inhibitor reversibility assay, 50 nM human LMPTP-A was pre-incubated with 10 μM of compound disclosed herein or DMSO for 5 min. The enzyme was diluted 100× in phosphatase assay buffer containing 0.4 mM OMFP and fluorescence was measured at the indicated time points.
As usually defined, the IC50 is the concentration needed to halve the response being measured. A high value points to weaker potency. For “3-[(3,5-dichloro(4-pyridyl))methyl]-8-(2-5,6,7,8-tetrahydronaphthyl)-3-hydropurine-6-ylamine”, the IC50 is under 1000 nM.
Take “3-[(3,5-diiodo(4-pyridyl))methyl]-8-(2-methylphenyl)-3-hydropurine-6-ylamine”: the IC50 was under 1000 nM.
The result for “3-[(4-iodo-2-methoxy(3-pyridyl))methyl]-8-(2-methylphenyl)-3-hydropurine-6-ylamine” reads under 1000 nM; that for `Cc1ccccc1-c1nc2c(N)nc(C)n(Cc3c(Cl)ccnc3Cl)c-2n1` [3-[(2,4-dichloro(3-pyridyl))methyl]-2-methyl-8-(2-methylphenyl)-3-hydropurine-6-ylamine], 1000 to 20000 nM; that for `Cc1cc(-c2nc3c(N)ncn(Cc4c(Cl)ccnc4Cl)c-3n2)n(C)n1` [3-[(2,4-dichloro(3-pyridyl))methyl]-8-(1,3-dimethylpyrazol-5-yl)-3-hydropurine-6-ylamine], under 1000 nM.
In turn, `Nc1ncn(Cc2c(Cl)ccnc2Cl)c2nc(-c3cc(F)ccc3F)nc1-2` [3-[(2,4-dichloro(3-pyridyl))methyl]-8-(2,5-difluorophenyl)-3-hydropurine-6-ylamine] returned an IC50 of under 1000 nM.
The same measure for `Nc1ncn(Cc2c(Cl)ccnc2Cl)c2nc(-c3ccc4c(c3)CCCC4)nc1-2` [3-[(2,4-dichloro(3-pyridyl))methyl]-8-(2-5,6,7,8-tetrahydronaphthyl)-3-hydropurine-6-ylamine]: under 1000 nM.
With `Cc1ccccc1-c1nc2c(N)ncn(Cc3c(Cl)ccnc3Cl)c-2n1` [3-[(2,4-dichloro(3-pyridyl))methyl]-8-(2-methylphenyl)-3-hydropurine-6-ylamine], the IC50 is under 1000 nM.
The result for `Nc1ncn(Cc2c(Cl)ccnc2Cl)c2nc(Cc3ccc(F)cc3)nc1-2` [3-[(2,4-dichloro(3-pyridyl))methyl]-8-[(4-fluorophenyl)methyl]-3-hydropurine-6-ylamine] reads under 1000 nM; that for `Nc1ncn(Cc2c(Cl)ccnc2Cl)c2nc(-c3ccccc3)nc1-2` [3-[(2,4-dichloro(3-pyridyl))methyl]-8-phenyl-3-hydropurine-6-ylamine], under 1000 nM.
The result for `COc1ccnc(OC)c1Cn1cnc(N)c2nc(-c3ccccc3C)nc1-2` [3-[(2,4-dimethoxy(3-pyridyl))methyl]-8-(2-methylphenyl)-3-hydropurine-6-ylamine] reads under 1000 nM; that for `Cc1nc(C)c(Cn2cnc(N)c3nc(-c4ccccc4C)nc2-3)s1` [3-[(2,4-dimethyl(1,3-thiazol-5-yl))methyl]-8-(2-methylphenyl)-3-hydropurine-6-ylamine], under 1000 nM.
The same measure for `Cc1ccccc1-c1nc2c(N)ncn(Cc3c(C)ccnc3C)c-2n1` [3-[(2,4-dimethyl(3-pyridyl))methyl]-8-(2-methylphenyl)-3-hydropurine-6-ylamine]: under 1000 nM.
`Cc1ccnc(C)c1Cn1cnc(N)c2nc(-c3ccccc3)nc1-2` [3-[(2,4-dimethyl(3-pyridyl))methyl]-8-phenyl-3-hydropurine-6-ylamine] displayed an IC50 of under 1000 nM.
The result for `Cc1ccccc1-c1nc2c(N)ncn(Cc3c(Cl)nc(N)nc3Cl)c-2n1` [3-[(2-amino-4,6-dichloropyrimidin-5-yl)methyl]-8-(2-methylphenyl)-3-hydropurine-6-ylamine] reads under 1000 nM.
The result for `Cc1ccccc1-c1nc2c(N)ncn(Cc3cccnc3C)c-2n1` [3-[(2-methyl(3-pyridyl))methyl]-8-(2-methylphenyl)-3-hydropurine-6-ylamine] reads under 1000 nM.
The result for `Cc1ccccc1-c1nc2c(N)nc(C)n(Cc3c(Br)cncc3Br)c-2n1` [3-[(3,5-dibromo(4-pyridyl))methyl]-2-methyl-8-(2-methylphenyl)-3-hydropurine-6-ylamine] reads 1000 to 20000 nM.
The compound `Nc1ncn(Cc2c(Br)cncc2Br)c2nc(-c3ccc4c(c3)CCCC4)nc1-2` [3-[(3,5-dibromo(4-pyridyl))methyl]-8-(2-5,6,7,8-tetrahydronaphthyl)-3-hydropurine-6-ylamine] returned an IC50 of under 1000 nM.
The same measure for `Cc1ccccc1-c1nc2c(N)ncn(Cc3c(Br)cncc3Br)c-2n1` [3-[(3,5-dibromo(4-pyridyl))methyl]-8-(2-methylphenyl)-3-hydropurine-6-ylamine]: under 1000 nM.
The same measure for `Nc1ncn(Cc2c(Br)cncc2Br)c2nc(-c3cccc4c3CCCC4)nc1-2` [3-[(3,5-dibromo(4-pyridyl))methyl]-8-(5,6,7,8-tetrahydronaphthyl)-3-hydropurine-6-ylamine]: over 20000 nM; for `Nc1ncn(Cc2c(Br)cncc2Br)c2nc(-c3cnn4ccccc34)nc1-2` [3-[(3,5-dibromo(4-pyridyl))methyl]-8-(8-hydropyrazolo[1,5-a]pyridin-3-yl)-3-hydropurine-6-ylamine]: under 1000 nM.
The same measure for `Nc1ncn(Cc2c(Br)cncc2Br)c2nc(-c3ccccc3)nc1-2` [3-[(3,5-dibromo(4-pyridyl))methyl]-8-phenyl-3-hydropurine-6-ylamine]: under 1000 nM; for `Cc1ccccc1-c1nc2c(N)nc(C)n(Cc3c(Cl)cncc3Cl)c-2n1` [3-[(3,5-dichloro(4-pyridyl))methyl]-2-methyl-8-(2-methylphenyl)-3-hydropurine-6-ylamine]: 1000 to 20000 nM; for `Cc1cc(-c2nc3c(N)ncn(Cc4c(Cl)cncc4Cl)c-3n2)n(C)n1` [3-[(3,5-dichloro(4-pyridyl))methyl]-8-(1,3-dimethylpyrazol-5-yl)-3-hydropurine-6-ylamine]: under 1000 nM.
`Cn1cnc2cc(-c3nc4c(N)ncn(Cc5c(Cl)cncc5Cl)c-4n3)ccc21` [3-[(3,5-dichloro(4-pyridyl))methyl]-8-(1-methylbenzimidazol-5-yl)-3-hydropurine-6-ylamine] returned an IC50 of under 1000 nM.
The same measure for `Cn1cnc2ccc(-c3nc4c(N)ncn(Cc5c(Cl)cncc5Cl)c-4n3)cc21` [3-[(3,5-dichloro(4-pyridyl))methyl]-8-(1-methylbenzimidazol-6-yl)-3-hydropurine-6-ylamine]: under 1000 nM; for `Nc1ncn(Cc2c(Cl)cncc2Cl)c2nc(-c3cc(F)ccc3F)nc1-2` [3-[(3,5-dichloro(4-pyridyl))methyl]-8-(2,5-difluorophenyl)-3-hydropurine-6-ylamine]: under 1000 nM; for `Nc1ncn(Cc2c(Cl)cncc2Cl)c2nc(-c3cccc4c3CCCC4)nc1-2` [3-[(3,5-dichloro(4-pyridyl))methyl]-8-(5,6,7,8-tetrahydronaphthyl)-3-hydropurine-6-ylamine]: over 20000 nM.
The result for `Nc1ncn(Cc2c(Cl)cncc2Cl)c2nc(-c3cnn4ccccc34)nc1-2` [3-[(3,5-dichloro(4-pyridyl))methyl]-8-(8-hydropyrazolo[1,5-a]pyridin-3-yl)-3-hydropurine-6-ylamine] reads under 1000 nM.
`Nc1ncn(Cc2c(Cl)cncc2Cl)c2nc(-c3ccn4nccc4c3)nc1-2` [3-[(3,5-dichloro(4-pyridyl))methyl]-8-(8-hydropyrazolo[1,5-a]pyridin-5-yl)-3-hydropurine-6-ylamine]: the IC50 is under 1000 nM.
The same measure for `Nc1ncn(Cc2c(Cl)cncc2Cl)c2nc(-c3cnccc3C(F)(F)F)nc1-2` [3-[(3,5-dichloro(4-pyridyl))methyl]-8-[4-(trifluoromethyl)(3-pyridyl)]-3-hydropurine-6-ylamine]: under 1000 nM.
